Results on two compounds are retold here after US10407445B2, “Hepatitis C virus inhibitors” (ENANTA PHARMACEUTICALS, INC., priority 2013, dated 2019).

Data set [1] can be described thus: IV and PO single dose pharmacokinetic studies in SD rats. The data set is classed as in vivo. As to conditions: Sprague-Dawley, rat, plasma, male SD rats, oral gavage 20 mg/kg vs IV bolus 2 mg/kg. The procedure: The pharmacokinetics of selected compounds was characterized in male Sprague-Dawley (SD) rats (250-300 g). […] The intravenous (IV) dosing vehicle was 5% ethanol and 95% of 20% 2-hydroxypropyl β-cyclodextrin in water. The oral dosing vehicle was 33% of Microemulsion Preconcentrate #5 (a lipid based self-emulsifying drug delivery system, SEDDS) and 67% of 50 mM citrate buffer (final pH 3.6).
Serial blood samples (approximately 0.3 mL each) were collected from jugular vein or other suitable vein at specified time points. For the IV dosing group, the blood samples were collected predose and at 0.08, 0.25, 0.50, 1, 3, 6, 8, and 24 hours after the start of dosing. For the oral group, the blood samples were collected predose and at 0.08, 0.25, 0.50, 1, 3, 6, 8, and 24 hours after dosing. The blood samples were collected into VACUTAINER™ tubes containing EDTA-K3 as the anti-coagulant and were centrifuged at approximately 4° C. to obtain plasma. The plasma samples were stored at −20° C. until analysis by LC/MS/MS.
A bioanalytical method utilizing high performance liquid chromatography coupled to tandem mass spectrometry (LC/MS/MS) was developed for analysis of the selected compound in rat plasma. Detection was performed using multiple reaction monitoring (MRM); Ions representing the precursor (M+H)^+ species was selected in quadrupole 1 (Q1) and collided with nitrogen gas in the collision cell (Q2) to generate specific product ion, which was subsequently monitored by quadrupole 3 (Q3). Standard curve and quality control samples were prepared in male rat plasma and processed in the same way as the test samples to generate quantitative data.
Pharmacokinetic parameters were generated using non-compartmental pharmacokinetic analysis (Phoenix WinNonlin, version 6.3). Values below the lower limit of quantification (LLOQ) were assigned a value of zero if predose and treated as missing thereafter. Area under the curve (AUC) was calculated using the linear trapezoidal rule. The oral bioavailability (% F) was determined by comparison of the area under the curve (AUC) of the compound in plasma following oral administration to that generated following intravenous administration.

Data set [2] relates to GT2a-3a-S52 replicon. Put plainly: Stable replicon assay, comparison to daclatasvir, GT2a-3a-S52. The data set is classed as cell-based. Particulars: Hepatitis C virus. The source says:
The plasmid pSG-hRlucNeo-JFH1 was generated from pSG-Neo-JFH1 (Kato et al. 2003, Gastroentrology 125:1808-1817). A fragment containing the JFH-1 5′ NTR-hRluc-Neo gene and two unique restriction sites (AgeI and PmeI) was synthesized (Integrated DNA Technologies, Coralville, Iowa). The resulting plasmid was digested with AgeI and PmeI and the excised fragment (5′NTR-hRluc-Neo) was ligated into pSG-Neo-JFH1 digested with the same enzymes to generate pSG-hRlucNeo-JFH1. To allow expression of heterologous NS5A sequences, an NS5A shuttle vector was generated from pSG-Neo-JFH1, in which the entire coding sequence of NS5A plus the first eight codons of NS5B were replaced with an AfeI restriction site. This was done by Infusion cloning (Clontech, Mountain View, Calif.) from two PCR products that were generated using pSG-Neo-JFH1 as a template and the following primer pairs: […]
Stable HCV replicon cell lines were grown in complete media (Dulbecco's modified Eagle medium [DMEM], 2 mM L-glutamine, 0.1 mM essential amino acids, 1 mM sodium pyruvate, 10% fetal bovine serum) with the addition 500 μg/ml […] (G418). […] For stable and transient replicon assays, luciferase activity of compound-treated cells was measured relative to DMSO-treated cells after 72 h incubation using RENILLA-GLO™ Luciferase Assay (Promega). […]
A general note: In antiviral work, replicon cells carry a viral genome segment that copies itself.

Data set [3] concerns HCV genotype 1a replicon, NS5A M28T Q30H. Put plainly: Transient replication assay, GT1a NS5A M28T Q30H. The data set is classed as cell-based. Particulars: Hepatitis C virus.

A word on the bioavailability: it is the share of a dose that reaches the circulation, judged against a reference dose that is usually intravenous. A higher bioavailability goes with good availability. In general, EC50 refers to the concentration needed to bring the measured effect to its halfway point. High values mean weaker potency, low ones greater potency. Turning to `COC(=O)N[C@H](C(=O)N1C[C@]2(CCCOC2)C[C@H]1c1ncc(-c2ccc(-c3ccc4c(ccc5nc([C@@H]6C[C@@H]7CCC[C@@H]7N6C(=O)[C@@H](NC(=O)OC)C(C)C)[nH]c54)c3)cc2)[nH]1)C(C)C` [Compound 16], the bioavailability in data set [1] was determined as 23.7%. In addition, the EC50 turned out to be 0.00054 µM in data set [2] and 0.024 µM in data set [3].

Take `COC(=O)N[C@H](C(=O)N1CCC[C@H]1c1nc(-c2ccc(-c3ccc(-c4c[nH]c([C@@H]5CCCN5C(=O)[C@@H](NC(=O)OC)C(C)C)n4)cc3)cc2)c[nH]1)C(C)C` [Daclatasvir, reference compound]: the EC50 in data set [2] is 0.00039 µM; in data set [3] it was 0.733 µM.
